Data from patent US11877553B2, “Effects of a plurality of mutations to improve herbicide resistance/tolerance in rice” (priority 2017, dated 2024).

Assays:
Assay type in all cases: in vivo, rice
[1] = tested on: RT IMI hybrids (LF2-RTC2/LM1-RTC1, LF1-RTC2/LM1-RTC1, LF3-RTC2\LM4-RTC1); test: 16GH-T7 greenhouse Imazamox trial, injury in RT IMI hybrids; conditions: Imazamox 0.5×, 1×, 2× or 4× at about preflood stage, alone or 2 weeks after 1× Imazethapyr, any treatment
Description: (§1) FIG. 3A to FIG. 3I illustrate the results of Example 1: FIG. 3A control; FIG. 3B 0.5× Imazamox; FIG. 3C 1× Imazamox; FIG. 3D 2× Imazamox; FIG. 3E 4× Imazamox; FIG. 3F 1× Imazethapyr+0.5× Imazamox; FIG. 3G 1× Imazethapyr+1× Imazamox; FIG. 3H 1× Imazethapyr+2× Imazamox; FIG. 3I 1× Imazethapyr+4× Imazamox; Pots L to R: LF2-RTC2/LM1-RTC1, LF1-RTC2/LM1-RTC1, LF3-RTC2\LM4-RTC1, mutated line P1003A205V, mutated line R0146G654E, sensitive control commercial variety Cypress, commercial hybrid CLXL745.
(§2) Trial consisted of 2 treatment regimens with Imazamox applications at approximately the preflood stage with rates of 0.5×, 1×, 2×, or 4×, either alone or 2 weeks following application of 1× Imazethapyr.
(§3) FIG. 4 Representative Pots 4 Weeks Post Application of Imazamox.

[2] = tested on: single trait mutant lines (P1003A205V, R0146G654E); test: 16GH-T7 greenhouse Imazamox trial, injury in single trait mutant lines; conditions: Imazamox 0.5× to 4× at about preflood stage, alone or 2 weeks after 1× Imazethapyr
Description: as §1, §2, §3

[3] = tested on: homozygous A205V (RTC1) mutant line (P1003A205V); test: 16-T7 log sprayer trial, Imazethapyr, homozygous A205V line; conditions: single application, all tested rates 8× (48 oz/acre) and lower
[4] = tested on: G654E (RTC2) homozygous line; test: 16-T7 log sprayer trial, Imazethapyr, homozygous G654E line; conditions: single application, half-step log sprayer, rates 16× to 1/128×
[5] = tested on: G654E/A205V hybrids; test: 16-T7 log sprayer trial, Imazethapyr, G654E/A205V hybrids; conditions: single application, half-step log sprayer, rates 16× to 1/128×; either hybrid
[6] = tested on: A205V-G654E hybrids; test: 15SA-T9 IMI conversion efficacy trial; conditions: 2 applications (2 leaf and preflood)
Procedure: 2 leaf and preflood application of IMI herbicide on materials converted with RiceTec IMI traits and controls. All males included RTC1 (A205V) in their genome. Females with RTC2 (G654E) were not included due to limited seed numbers. Females were tested separately in 15GH-T8 using potted plant replications.

[7] = tested on: heterozygous A205V hybrids; conditions: 2 leaf and preflood application
Description: Trial: 2 leaf and preflood application of Imazethapyr or Kifix™ (imazapic/imazapir) herbicide on materials converted with RiceTec IMI traits and commercial IMI control.

Row | Compound | injury [1] | injury [2] | % of injury 3 weeks post 3-4 leaf application [3] | % of injury 3 weeks post 3-4 leaf application [4] | % of injury 3 weeks post 3-4 leaf application [5] | injury rates [6] | tolerance as compared to the A205V-G654E hybrids [7]
1 | COCc1cnc(C2=NC(C)(C(C)C)C(=O)N2)c(C(=O)O)c1 (stereo not shown) [Imazamox, imazamox] | No injury | injury was observed |  |  |  |  | 
2 | CCc1cnc(C2=NC(C)(C(C)C)C(=O)N2)c(C(=O)O)c1 (stereo not shown) [Imazethapyr, imazethapyr] |  |  | below 10% | lower than expected | no observed injury | very low injury rates | reduced tolerance
